According to patent publication US12606544B2, “JAK1 selective kinase inhibitor” (DIZAL (JIANGSU) PHARMACEUTICAL CO., LTD., priority 2019, dated 2026):

What was measured:
JAK3 = molecular target: T1, JAK3 (Homo sapiens, UniProt P52333); test: Lance Ultra Kinase Assay, recombinant JAK3; type: biochemical; conditions: 5 mM ATP
T1 construct: purchased Carna Biosciences
T1 sequence (P52333 1-1124): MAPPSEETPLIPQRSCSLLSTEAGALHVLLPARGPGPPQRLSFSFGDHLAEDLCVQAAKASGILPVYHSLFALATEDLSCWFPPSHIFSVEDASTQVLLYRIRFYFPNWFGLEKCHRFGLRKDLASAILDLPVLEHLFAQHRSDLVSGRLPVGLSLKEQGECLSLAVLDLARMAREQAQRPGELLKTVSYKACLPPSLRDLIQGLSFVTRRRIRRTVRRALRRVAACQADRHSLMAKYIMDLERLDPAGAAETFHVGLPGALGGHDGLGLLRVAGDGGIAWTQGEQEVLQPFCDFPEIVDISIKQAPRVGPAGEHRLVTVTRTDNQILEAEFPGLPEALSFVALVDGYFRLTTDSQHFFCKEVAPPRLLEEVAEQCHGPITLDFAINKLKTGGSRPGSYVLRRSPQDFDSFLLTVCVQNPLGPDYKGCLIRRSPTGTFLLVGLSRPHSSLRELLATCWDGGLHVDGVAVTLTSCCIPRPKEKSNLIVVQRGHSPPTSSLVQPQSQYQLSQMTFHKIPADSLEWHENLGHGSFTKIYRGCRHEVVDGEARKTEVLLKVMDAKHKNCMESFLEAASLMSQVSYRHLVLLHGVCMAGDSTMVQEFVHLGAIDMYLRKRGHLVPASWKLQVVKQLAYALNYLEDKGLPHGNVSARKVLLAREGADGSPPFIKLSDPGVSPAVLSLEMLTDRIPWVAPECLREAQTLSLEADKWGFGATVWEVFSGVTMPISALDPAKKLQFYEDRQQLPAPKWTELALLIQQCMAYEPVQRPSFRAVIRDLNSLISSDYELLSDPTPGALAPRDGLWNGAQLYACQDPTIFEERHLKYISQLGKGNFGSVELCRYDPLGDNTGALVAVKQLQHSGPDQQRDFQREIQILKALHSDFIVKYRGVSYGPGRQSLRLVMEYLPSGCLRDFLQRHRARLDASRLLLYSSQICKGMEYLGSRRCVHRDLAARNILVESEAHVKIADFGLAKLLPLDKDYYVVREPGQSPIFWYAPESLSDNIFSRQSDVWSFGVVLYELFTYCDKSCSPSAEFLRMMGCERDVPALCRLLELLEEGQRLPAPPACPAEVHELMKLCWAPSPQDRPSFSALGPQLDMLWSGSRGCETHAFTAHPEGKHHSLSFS
Description: (§1) Recombinant JAK1, JAK2, JAK3 and TYK2 purchased from Carna Biosciences. The inhibition potency of compounds against JAK1, JAK2, JAK3 and TYK2 was assessed using Lance Ultra Kinase Assay.
(§2) In brief, recombinant kinases were pre-incubated in the presence or absence of compound at room temperature for 15 minutes. The reaction was initiated by the addition of 5 mM ATP and substrate peptide which could be phosphorylated by kinases in the reaction. After 60 minutes incubation, the reaction was stopped by the addition of the detection reagent mix containing EDTA. The fluorescence was measured at 615 nm and 665 nm, respectively with excitation wavelength at 320 nm. The calculated signal ratio of 665 nm/615 nm is proportional to the kinase activity.

JAK2 = molecular target: T2, JAK2 (Homo sapiens, UniProt O60674); test: Lance Ultra Kinase Assay, recombinant JAK2; type: biochemical; conditions: 5 mM ATP
T2 construct: purchased Carna Biosciences
T2 sequence (O60674 whole entry): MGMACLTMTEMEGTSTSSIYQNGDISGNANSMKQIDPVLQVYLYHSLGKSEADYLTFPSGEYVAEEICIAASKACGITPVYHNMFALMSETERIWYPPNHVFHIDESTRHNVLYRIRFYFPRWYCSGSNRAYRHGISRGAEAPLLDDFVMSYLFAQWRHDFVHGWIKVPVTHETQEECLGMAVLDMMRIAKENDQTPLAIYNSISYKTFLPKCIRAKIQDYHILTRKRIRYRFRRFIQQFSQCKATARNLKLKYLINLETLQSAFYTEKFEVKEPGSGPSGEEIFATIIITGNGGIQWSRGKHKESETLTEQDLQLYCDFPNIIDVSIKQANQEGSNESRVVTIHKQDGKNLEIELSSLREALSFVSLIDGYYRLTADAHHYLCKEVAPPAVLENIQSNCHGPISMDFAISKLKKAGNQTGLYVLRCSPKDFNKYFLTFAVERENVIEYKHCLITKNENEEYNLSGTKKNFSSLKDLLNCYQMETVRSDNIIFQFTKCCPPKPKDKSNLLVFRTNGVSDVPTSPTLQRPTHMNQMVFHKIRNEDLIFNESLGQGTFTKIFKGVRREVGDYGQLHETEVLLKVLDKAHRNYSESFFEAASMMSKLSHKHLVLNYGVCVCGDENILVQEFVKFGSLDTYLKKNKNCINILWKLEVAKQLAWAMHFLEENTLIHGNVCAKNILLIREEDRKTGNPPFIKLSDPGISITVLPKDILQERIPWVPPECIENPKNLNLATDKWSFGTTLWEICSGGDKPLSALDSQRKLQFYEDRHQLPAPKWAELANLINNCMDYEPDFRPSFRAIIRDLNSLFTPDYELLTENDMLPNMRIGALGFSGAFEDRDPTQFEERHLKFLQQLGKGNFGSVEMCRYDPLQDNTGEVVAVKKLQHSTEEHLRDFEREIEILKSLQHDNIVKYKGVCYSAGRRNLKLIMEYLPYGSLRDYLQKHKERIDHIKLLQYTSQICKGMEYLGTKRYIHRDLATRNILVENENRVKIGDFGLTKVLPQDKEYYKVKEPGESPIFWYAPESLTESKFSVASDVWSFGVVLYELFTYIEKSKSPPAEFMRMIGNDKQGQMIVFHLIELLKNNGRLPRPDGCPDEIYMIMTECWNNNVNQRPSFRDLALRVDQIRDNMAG
Description: as §1, §2

phosphorylation of STAT6 = test: Cellular p-STAT6 assay, IL-13 stimulated THP-1 cells, flow cytometry; type: cell-based; conditions: Homo sapiens, THP-1, THP-1 cells, IL-13 10 ng/ml; read-out: pSTAT6 IC50
Description: To detect phosphorylated STAT6 (pSTAT6), THP-1 cells were harvested by centrifugation at 250 g for 5 min and resuspended in assay medium (RPMI1640+10% FBS) to 2×10^5 cells/well. Test compounds were applied to assay plates in serial dilution from 1 μM to 0.3 nM in DMSO. THP-1 cells were incubated with serial diluted compounds for 60 min at room temperature, followed by stimulation of interleukin (IL-13, 10 ng/ml) for 30 min, fixed in Cytofix buffer (BD Biosciences), and permeabilized in 90% methanol on ice. PE anti-pSTAT6 (BD Biosciences) antibodies were stained for 60 min at room temperature before being analyzed by flow cytometry. In the assay the compounds were thus diluted and dose-response curves for inhibition of the signal determine the IC50 for the compounds.

TYK2 = molecular target: T3, TYK2 (Homo sapiens, UniProt P29597); test: Lance Ultra Kinase Assay, recombinant TYK2; type: biochemical; conditions: 5 mM ATP
T3 construct: purchased Carna Biosciences
T3 sequence (P29597 whole entry): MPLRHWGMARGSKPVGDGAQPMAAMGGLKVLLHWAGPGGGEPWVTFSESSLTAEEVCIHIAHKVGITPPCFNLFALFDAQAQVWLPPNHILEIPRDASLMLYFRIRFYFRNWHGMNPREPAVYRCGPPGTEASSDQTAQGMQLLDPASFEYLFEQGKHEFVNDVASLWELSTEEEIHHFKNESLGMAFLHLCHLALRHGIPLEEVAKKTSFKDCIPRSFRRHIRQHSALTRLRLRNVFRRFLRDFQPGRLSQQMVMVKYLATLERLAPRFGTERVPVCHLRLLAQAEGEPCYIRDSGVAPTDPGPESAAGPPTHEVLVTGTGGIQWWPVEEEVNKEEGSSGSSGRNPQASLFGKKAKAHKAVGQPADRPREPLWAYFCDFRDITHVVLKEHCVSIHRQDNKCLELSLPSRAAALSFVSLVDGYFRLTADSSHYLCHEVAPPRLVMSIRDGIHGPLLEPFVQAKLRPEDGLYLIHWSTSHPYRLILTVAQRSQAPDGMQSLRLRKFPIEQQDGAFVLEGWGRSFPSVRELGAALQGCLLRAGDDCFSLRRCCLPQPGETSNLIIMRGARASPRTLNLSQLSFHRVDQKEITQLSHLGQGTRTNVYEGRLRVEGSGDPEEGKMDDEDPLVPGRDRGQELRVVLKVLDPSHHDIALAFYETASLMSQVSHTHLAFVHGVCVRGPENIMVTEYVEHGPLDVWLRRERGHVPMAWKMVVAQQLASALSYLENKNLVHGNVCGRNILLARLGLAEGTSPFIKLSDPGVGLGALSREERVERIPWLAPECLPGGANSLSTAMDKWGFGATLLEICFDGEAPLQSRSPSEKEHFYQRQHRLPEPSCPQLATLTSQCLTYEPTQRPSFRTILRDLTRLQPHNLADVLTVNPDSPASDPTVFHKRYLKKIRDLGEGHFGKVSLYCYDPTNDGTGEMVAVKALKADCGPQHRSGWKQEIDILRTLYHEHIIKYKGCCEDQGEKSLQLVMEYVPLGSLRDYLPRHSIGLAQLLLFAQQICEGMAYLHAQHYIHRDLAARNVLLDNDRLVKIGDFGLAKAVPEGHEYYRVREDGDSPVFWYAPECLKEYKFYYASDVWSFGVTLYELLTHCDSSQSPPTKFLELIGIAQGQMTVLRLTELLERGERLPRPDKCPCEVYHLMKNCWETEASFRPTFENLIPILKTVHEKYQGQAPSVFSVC
Description: as §1, §2

JAK1 = molecular target: T4, JAK1 (Homo sapiens, UniProt P23458); test: Lance Ultra Kinase Assay, recombinant JAK1; type: biochemical; conditions: 5 mM ATP
T4 construct: purchased Carna Biosciences
T4 sequence (P23458 whole entry): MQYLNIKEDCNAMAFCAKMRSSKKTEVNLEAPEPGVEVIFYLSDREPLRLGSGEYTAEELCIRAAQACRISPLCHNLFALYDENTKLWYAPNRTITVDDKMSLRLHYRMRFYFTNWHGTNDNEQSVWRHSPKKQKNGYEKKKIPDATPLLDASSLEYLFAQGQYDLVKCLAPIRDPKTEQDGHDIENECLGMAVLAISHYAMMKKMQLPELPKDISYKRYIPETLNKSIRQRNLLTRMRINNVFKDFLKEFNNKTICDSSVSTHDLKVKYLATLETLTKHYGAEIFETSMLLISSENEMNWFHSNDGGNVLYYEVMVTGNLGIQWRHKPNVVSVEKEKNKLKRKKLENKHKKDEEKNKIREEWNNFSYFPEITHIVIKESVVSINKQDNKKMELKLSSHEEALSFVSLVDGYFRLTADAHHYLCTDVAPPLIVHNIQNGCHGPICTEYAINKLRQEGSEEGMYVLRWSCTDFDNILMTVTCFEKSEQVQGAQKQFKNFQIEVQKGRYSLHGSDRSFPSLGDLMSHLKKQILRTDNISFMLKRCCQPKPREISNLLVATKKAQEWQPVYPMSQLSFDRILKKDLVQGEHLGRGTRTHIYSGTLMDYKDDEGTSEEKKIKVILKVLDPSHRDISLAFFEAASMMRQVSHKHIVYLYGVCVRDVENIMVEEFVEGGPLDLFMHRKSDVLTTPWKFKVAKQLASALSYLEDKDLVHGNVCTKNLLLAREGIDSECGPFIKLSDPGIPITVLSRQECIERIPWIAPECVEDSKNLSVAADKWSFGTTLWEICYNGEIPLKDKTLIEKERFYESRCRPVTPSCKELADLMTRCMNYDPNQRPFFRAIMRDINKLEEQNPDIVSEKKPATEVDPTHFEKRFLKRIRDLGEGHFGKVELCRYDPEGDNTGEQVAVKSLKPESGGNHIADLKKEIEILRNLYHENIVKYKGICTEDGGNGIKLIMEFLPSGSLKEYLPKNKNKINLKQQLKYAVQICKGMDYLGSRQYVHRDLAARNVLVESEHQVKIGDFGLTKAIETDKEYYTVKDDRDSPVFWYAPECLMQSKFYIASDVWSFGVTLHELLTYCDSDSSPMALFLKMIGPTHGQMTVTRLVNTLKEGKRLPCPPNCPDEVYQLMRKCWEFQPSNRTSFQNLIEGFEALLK
Description: as §1, §2

IC50 (JAK3) [nM] | IC50 (JAK2) [nM] | IC50 (phosphorylation of STAT6) [nM] | IC50 (TYK2) [nM] | IC50 (JAK1) [nM] | Structure (SMILES)
5360 | 71 | 20.9 | 1230 | 0.22 | CNC(=O)COc1cncc(Nc2ncc(F)c(-c3c[nH]c4c(NC(=O)[C@@H](COC)N5CCN(C)CC5)cccc34)n2)c1 [Example 68, (R)-N-(3-(5-fluoro-2-((5-(2-(methylamino)-2-oxoethoxy)pyridin-3-yl)amino)pyrimidin-4-yl)-1H-indol-7-yl)-3-methoxy-2-(4-methylpiperazin-1-yl)propanamide]
> 10000 | 12 | 11.3 | 447 | 0.18 | COC[C@H](C(=O)Nc1cccc2c(-c3nc(Nc4cnc(CO)c(OC)c4)ncc3F)c[nH]c12)N1CCN(C)CC1 [Example 34, (R)-N-(3-(5-fluoro-2-((6-(hydroxymethyl)-5-methoxypyridin-3-yl)amino)pyrimidin-4-yl)-1H-indol-7-yl)-3-methoxy-2-(4-methylpiperazin-1-yl)propanamide]
> 10000 | 162 | 9.6 | 1180 | 0.12 | COC[C@H](C(=O)Nc1cccc2c(-c3nc(Nc4cncc(O)c4)ncc3F)c[nH]c12)N1CCN(C)CC1 [Example 28, (R)-N-(3-(5-fluoro-2-((5-hydroxypyridin-3-yl)amino)pyrimidin-4-yl)-1H-indol-7-yl)-3-methoxy-2-(4-methylpiperazin-1-yl)propanainide]
> 10000 | 125 | 8.4 | 1150 | 0.2 | COC[C@H](C(=O)Nc1cccc2c(-c3nc(Nc4cncc(C(=O)OC)c4)ncc3F)c[nH]c12)N1CCN(C)CC1 [Example 21, methyl (R)-5-((5-fluoro-4-(7-(3-methoxy-2-(4-methylpiperazin-1-yl)propanamido)-1H-indol-3-yl)pyrimidin-2-yl)amino)nicotinate]
> 10000 | 9 | 8.9 | 273 | 0.2 | COC[C@H](C(=O)Nc1cccc2c(-c3nc(Nc4cncc(CCCO)c4)ncc3F)c[nH]c12)N1CCN(C)CC1 [Example 25, (R)-N-(3-(5-fluoro-2-((5-(3-hydroxypropyl)pyridin-3-yl)amino)pyrimidin-4-yl)-1H-indol-7-yl)-3-methoxy-2-(4-methylpiperazin-1-yl)propanamide]

Second part, the compound before the results:

Structure (SMILES) | IC50 (JAK3) [nM] | IC50 (JAK2) [nM] | IC50 (phosphorylation of STAT6) [nM] | IC50 (TYK2) [nM] | IC50 (JAK1) [nM]
COC[C@H](C(=O)Nc1cccc2c(-c3nc(Nc4ccc5ocnc5c4)ncc3F)c[nH]c12)N1CCN(C)CC1 [Example 51, (R)-N-(3-(2-(benzo[d]oxazol-5-ylamino)-5-fluoropyrimidin-4-yl)-1H-indol-7-yl)-3-methoxy-2-(4-methylpiperazin-1-yl)propanamide] | > 10000 | 186 | 14.9 | 1400 | 0.23
COC[C@H](C(=O)Nc1cccc2c(-c3nc(Nc4ccc5ncoc5c4)ncc3F)c[nH]c12)N1CCN(C)CC1 [Example 50, (R)-N-(3-(2-(benzo[d]oxazol-6-ylamino)-5-fluoropyrimidin-4-yl)-1H-indol-7-yl)-3-methoxy-2-(4-methylpiperazin-1-yl)propanamide] | > 10000 | 119 | 14.4 | 772 | 0.11
COC[C@H](C(=O)Nc1cccc2c(-c3nc(Nc4ccc5[nH]ccc5c4)ncc3F)c[nH]c12)N1CCN(C)CC1 [Example 41, (R)-N-(3-(2-((1H-indol-5-yl)amino)-5-fluoropyrimidin-4-yl)-1H-indol-7-yl)-3-methoxy-2-(4-methylpiperazin-1-yl)propanamide] | > 10000 | 110 | 12.6 | 1430 | 0.22
COC[C@H](C(=O)Nc1cccc2c(-c3nc(Nc4cnn(-c5ccccc5C(=O)OC)c4)ncc3F)c[nH]c12)N1CCN(C)CC1 [Example 6, methyl (R)-2-(4-((5-fluoro-4-(7-(3-methoxy-2-(4-methylpiperazin-1-yl)propanamido)-1H-indol-3-yl)pyrimidin-2-yl)amino)-1H-pyrazol-1-yl)benzoate] | > 10000 | 452 | 6 | 4660 | 0.42
COC[C@H](C(=O)Nc1cccc2c(-c3nc(Nc4cc(CO)c5cn[nH]c5c4)ncc3F)c[nH]c12)N1CCN(C)CC1 [Example 61, (R)-N-(3-(5-fluoro-2-((4-(hydroxymethyl)-1H-indazol-6-yl)amino)pyrimidin-4-yl)-1H-indol-7-yl)-3-methoxy-2-(4-methylpiperazin-1-yl)propanamide] | 3590 | 8 | 17.7 | 194 | 0.11
COC[C@H](C(=O)Nc1cccc2c(-c3nc(Nc4cccc(CCC(=O)OC)n4)ncc3F)c[nH]c12)N1CCN(C)CC1 [Example 55, methyl (R)-3-(6-((5-fluoro-4-(7-(3-methoxy-2-(4-methylpiperazin-1-yl)propanamido)-1H-indol-3-yl)pyrimidin-2-yl)amino)pyridin-2-yl)propanoate] | > 10000 | 2710 | 15.3 | > 10000 | 12.8
COC[C@H](C(=O)Nc1cccc2c(-c3nc(Nc4ccc(OCC(=O)OC)nc4)ncc3F)c[nH]c12)N1CCN(C)CC1 [Example 14, methyl (R)-2-((5-((5-fluoro-4-(7-(3-methoxy-2-(4-methylpiperazin-1-yl)propanamido)-1H-indol-3-yl)pyrimidin-2-yl)amino)pyridin-2-yl)oxy)acetate] | > 10000 | 336 | 7.3 | 4200 | 0.2
COC[C@H](C(=O)Nc1cccc2c(-c3nc(Nc4ccc(OCc5ncco5)nc4)ncc3F)c[nH]c12)N1CCN(C)CC1 [Example 54, (R)-N-(3-(5-fluoro-2-((6-(oxazol-2-ylmethoxy)pyridin-3-yl)amino)pyrimidin-4-yl)-1H-indol-7-yl)-3-methoxy-2-(4-methylpiperazin-1-yl)propanamide] | > 10000 | 219 | 15.3 | 4880 | 0.86
COC[C@H](C(=O)Nc1cccc2c(-c3nc(Nc4ccc(-n5ccnc5)nc4)ncc3F)c[nH]c12)N1CCN(C)CC1 [Example 24, (R)-N-(3-(2-((6-(1H-imidazol-1-yl)pyridin-3-yl)amino)-5-fluoropyrimidin-4-yl)-1H-indol-7-yl)-3-methoxy-2-(4-methylpiperazin-1-yl)propanamide] | > 10000 | 403 | 8.9 | 2570 | 0.82
COC[C@H](C(=O)Nc1cccc2c(-c3nc(Nc4ccc(C(C)O)nc4)ncc3F)c[nH]c12)N1CCN(C)CC1 (single isomer, unassigned; isomer 2) [Example 9] | 9950 | 20 | 6.5 | 330 | 0.25
